Reference: US10962508B2, “Ultrasound-based method and related system to evaluate hemostatic function of whole blood” (University of Virginia Patent Foundation, priority 2009, dated 2021)
Entries after “also recorded” stand apart in the source; their conditions may differ.

Assays:
Format in all cases: cell-based, human
[1] = test system: fibrin polymerization in whole blood; assay: Sonorheometry of whole blood: coagulation plasma factors and fibrin polymerization (GPRP titration); details: kaolin-activated citrated whole blood, 5 volunteers; GPRP 0, 1, 2, 4, 8 mM
Experimental: (§1) Blood samples were obtained from a peripheral vein of the arm of a patient into six 1.8 ml Vacutainers™ (Becton Dickinson, Franklin Lakes, N.J.) containing 3.2% (0.105M) sodium citrate to prevent coagulation within the tubes. The first tube was discarded, while the remaining tubes were placed on a rocker table and analyzed sequentially starting thirty minutes after the draw. For all the experiments described here, samples were obtained from a total of eight volunteers (four male and four female) with age range of twenty-three to thirty years (mean and standard deviation of 25.75±3.3 years) and with no history of thrombotic or hemorrhagic disorders. Ultrasound pulses having 10 Mhz center frequency were applied, PRF was adaptively adjusted with the range of about 25 Hz to about 12.8 kHz. Automated measurements having a one second acquisition time were performed every six seconds.
(§2) In a typical experiment, 1 ml of citrated blood was pipetted into a 4 ml clear polystyrene cuvette 142 along with 0.5 mg of kaolin activator to start coagulation through activation of the intrinsic pathway and 62 μl of 0.2M CaCl2 to reverse the anticoagulant effect of the sodium citrate. Other reagents were also added as required by the specific study performed. Phosphate Buffer Saline (PBS) solution was added to maintain identical blood dilution. Sonorheometry data acquisition was initiated one minute after all the reagents were pipetted into the sample, and measurements were performed every six seconds.
Gly-Pro-Arg-Pro (GPRP) was obtained from Calbiochem (EMD Chemicals Inc., Gibbstown, N.J.) with 99.1% purity as determined by HPLC. GPRP was dissolved in PBS into 100 mM stock. Kaolin was obtained in powder form (Sigma Aldrich, St. Louis, Mo.) and suspended in sterile sodium chloride solution (Becton Dickinson, Franklin Lakes, N.J.). Monoclonal antibody abciximab (ReoPro®, Eli Lilly and Company, Indianapolis, Ind.) was obtained in a concentration of 2 mg/ml. The original solution was diluted by a factor of five by adding 200 μL of PBS into 50 μl of the original ReoPro solution. The serine protease abbokinase (urokinase-type Plasminogen Activator, or uPA, Hyphen Biomed, Neuville-sur-Oise, France) was obtained in a concentration of 1 unit/μl.
(§3) The raw ultrasound data were transferred from the custom PCB 110 to the laptop computer 150 through USB interface 112 and analyzed in MATLAB (MathWorks Inc., Natick, Mass.). […]
(§4) The sonorheometry parameters were calculated by fitting values 20 T to a sigmoidal curve 602 and evaluating the first derivative 30 of the curve 602, as shown in FIG. 8. For example, the clotting times TC1 and TC2 were calculated based on a threshold value of the derivative curve (20% of the minimum value), whereas the clotting slope CFR is the minimum of the derivative curve. […]

[2] = test system: platelet aggregation in whole blood; assay: Sonorheometry of whole blood: assessment of platelet function (abciximab titration)
Experimental: as §1
as §2, with “Sonorheometry data acquisition was initiated one minute after all the reagents were pipetted into the sample, and measurements were performed every six seconds.” left out
(§5) Gly-Pro-Arg-Pro (GPRP) was obtained from Calbiochem (EMD Chemicals Inc., Gibbstown, N.J.) with 99.1% purity as determined by HPLC. […]
as §3, §4

[3] = test system: fibrinolysis of whole blood clot; assay: Sonorheometry of whole blood: assessment of fibrinolytic proteins (urokinase titration); details: urokinase 0, 100, 150, 200 Units per ml of blood
Experimental: as §1
as §2, with “Sonorheometry data acquisition was initiated one minute after all the reagents were pipetted into the sample, and measurements were performed every six seconds.” left out
as §5, §3, §4

[4] = kaolin-activated citrated whole blood

## Gly-Pro-Arg-Pro [GPRP]
[1]
  clot formation rate CFR (rate of fibrin polymerization): decreased
  final clotting time TC2: increase with the concentration of GPRP
  initial clotting time TC1: increase with the concentration of GPRP
  stiffness S (final stiffness of the formed clot): decreased

## abciximab: monoclonal antibody; inhibitor of platelet aggregation blocking the IIb/IIIa receptor
[2]; abciximab 0, 2, 4, 6, 8, 12 μg/ml
  other parameters describing the dynamics of clot formation and dissolution: did not change significantly
[2]; abciximab 0 to 12 μg/ml
  variation of final clot stiffness across the concentrations used: varied by over one order of magnitude
[2]; kaolin-activated citrated whole blood, five individuals, abciximab 0, 2, 4, 6, 8, 12 μg/ml
  stiffness SMAX: reduces the stiffness SMAX yielding a softer clot

## urokinase
[3]; [4]
  clot lysis time TL1: decreased as a function of urokinase concentration
  clot lysis time TL2: decreased as a function of urokinase concentration
[3]
  return of blood sample to a viscous fluid (clot dissolution): returned to a viscous fluid significantly faster with increasing concentrations of urokinase; also recorded: rapidly dissolved the blood clot and restored the original mechanical conditions prior to clot formation
